From patent US6914045B2, “Glycopeptide antibiotics” (Wyeth Holdings Corporation, priority 2001, dated 2005)
In brackets after ≈: the same amount, converted by molar mass.

What was measured:
[1] = test system: Staphylococcus aureus; test: zone of inhibition, agar well assay plate; assay type: cell-based; conditions: 25 μl of extract per 5 mm well, incubated overnight at 37° C.
Protocol: Protocol for Assay Plate Staphylococcus aureus
Inoculate 10 mL of Tryptic Soy Broth with a loopful of slant culture, Staphylococcus aureus, and place in a stationary rack at 37° C. After 16-18 hour incubation, the Optical Density (OD) of the culture is read@A600 nm, using a 1:10 dilution. OD should be between 0.1-0.3, and if not adjust with Tryptic Soy Broth. A 40 mL sample of Nutrient Agar, pH 6.8 is inoculated with 90 ul of S. aureus culture and poured into a sterile petri dish. When the agar has solidified, wells (5 mm) are plated using an automated welling device. Wells are inoculated with 25 μl of extract and incubated overnight at 37° C. Zones of inhibition are measured and recorded the following morning.

[2] = test system: Enterococcus faecalis (GC 6189); test: acute lethal infection in mice; assay type: in vivo; conditions: female CD-1 mice, intraperitoneal challenge, intravenous 30 min. after infection, 7 day survival
Summary of the method: (§1)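 Female CD-1 mice (20±2 g) got an intraperitoneal bacterial challenge lethal to untreated controls within 24–48 hr. Compound was dosed intravenously 30 min after infection, five mice per dose. ED50 was calculated from 7-day survival pooled across 3 tests.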

[3] = test system: Staphylococcus aureus-SMITH (GC 4543); test: acute lethal infection in mice; assay type: in vivo; conditions: acute lethal infection, female CD-1 mice, intraperitoneal challenge, intravenous 30 min. after infection, 7 day survival
Summary of the method: as §1

[4] = test system: Escherichia coli; test: in vitro antibacterial evaluation, MIC by broth dilution; assay type: cell-based; conditions: 18 hours at 35° C.
Summary of the method: (§2)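 Broth dilution per NCCLS standard M7-A2 in Muller-Hinton II […], with an inoculum of 5×10^5 CFU/mL and antibiotic spanning 64-0.06 μg/mL. The MIC is the lowest concentration that inhibits growth of the organism.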

[5] = test system: Streptococcus sp.; test: as above; assay type: cell-based; conditions: broth dilution, 18 hours at 35° C.
Summary of the method: as §2

[6] = test system: Enterococcus sp.; test: as above; assay type: cell-based; conditions: broth dilution, 18 hours at 35° C.
Summary of the method: as §2

[7] = test system: Staphylococcus sp.; test: as above; assay type: cell-based; conditions: broth dilution, 18 hours at 35° C.
Summary of the method: as §2

## CCCC(=O)OC1C(O)C(CO)OC(OC2C(CO)OC(Oc3ccc(CC4NC(=O)C(C(C)c5ccccc5)NC(=O)CNC(=O)C(CO)NC(=O)C(C(O)C5CNC(=N)N5C5OC(CO)C(O)C(O)C5O)NC(=O)C(C(O)C5CNC(=N)N5)NC4=O)cc3)C(O)C2O)C1O (stereo not drawn) [Example 272b, Cyclo[glycyl-β-methylphenylalanyl-O-[4-O-(3-O-butanoyl-hexopyranosyl)-hexopyranosyl]tyrosyl-3-(2-iminoimidazolidin-4-yl)seryl-3-(3-hexopyranosyl-2-iminoimidazolidin-4-yl)serylseryl]]
[1]
  Zone of Inhibition vs. S. aureus: 8 mm

## CCC(C)CC(=O)OC1C(CO)OC(OC2C(CO)OC(Oc3ccc(CC4NC(=O)C(C(C)c5ccccc5)NC(=O)CNC(=O)C(CO)NC(=O)C(C(O)C5CNC(=N)N5C5OC(CO)C(O)C(O)C5O)NC(=O)C(C(O)C5CNC(=N)N5)NC4=O)cc3)C(O)C2O)C(O)C1O (stereo not drawn) [Example 271c, Cyclo[glycyl-β-methylphenylalanyl-O-[4-O-[4-O-(3-methylpentanoyl)hexopyranosyl]-hexopyranosyl]tyrosyl-3-(2-iminoimidazolidin-4 yl)seryl-3-(3-hexopyranosyl-2-iminoimidazolidin-4-yl)serylseryl]]
[1]
  Zone of Inhibition vs. S. aureus: 12 mm

## CC(c1ccccc1)C1NC(=O)CNC(=O)C(CO)NC(=O)C(C(O)C2CNC(=N)N2C2OC(CO)C(O)C(O)C2O)NC(=O)C(C(O)C2CNC(=N)N2)NC(=O)C(Cc2ccc(OC3OC(CO)C(OC4OC5COC(Cc6ccc(F)cc6)OC5C(O)C4O)C(O)C3O)cc2)NC1=O (stereo not drawn) [Example 121, Cyclo[glycyl-β-methylphenylalanyl-O-[4-O-[4,6-O-(4-fluorophenethylidene)hexopyranosyl]-hexopyranosyl]tyrosyl-3-(2-iminoimidazolidin-4-yl)seryl-3-(3-hexopyranosyl-2-iminoimidazolidin-4-yl)serylseryl]]
[2]
  median effective dose (ED50), Enterococcus faecalis (GC 6189): 0.5 mg/kg
[3]
  median effective dose (ED50), Staphylococcus aureus-SMITH (GC 4543): 0.32 mg/kg
[4]; strain ATCC 25922
  MIC Escherichia coli (ATCC 25922): 32 µg/mL (≈ 22.6 µM)
[4]; strain GC 4559
  MIC Escherichia coli (GC 4559): 32 µg/mL (≈ 22.6 µM)
[4]; strain GC 4560
  MIC Escherichia coli (GC 4560): 1 µg/mL (≈ 0.707 µM)
[5]; Streptococcus agalactiae (GC 4564)
  MIC Streptococcus agalactiae (GC 4564): 0.25 µg/mL (≈ 0.177 µM)
[5]; Streptococcus pneumoniae (ATCC 6301)
  MIC Streptococcus pneumoniae (ATCC 6301): <0.06 µg/mL
[5]; Streptococcus pneumoniae (GC 1894)
  MIC Streptococcus pneumoniae (GC 1894): <0.06 µg/mL
[5]; Streptococcus pneumoniae (GC 4565)
  MIC Streptococcus pneumoniae (GC 4565): <0.06 µg/mL
[5]; Streptococcus pyogenes (GC 4563)
  MIC Streptococcus pyogenes (GC 4563): 0.25 µg/mL (≈ 0.177 µM)
[5]; strain ATCC 6301
  MIC Streptococcus pneumoniae (ATCC 6301): <0.06 µg/mL
[5]; strain GC 1894
  MIC Streptococcus pneumoniae (GC 1894): <0.06 µg/mL
[5]; strain GC 4563
  MIC Streptococcus pyogenes (GC 4563): 0.25 µg/mL (≈ 0.177 µM)
[5]; strain GC 4564
  MIC Streptococcus agalactiae (GC 4564): 0.25 µg/mL (≈ 0.177 µM)
[5]; strain GC 4565
  MIC Streptococcus pneumoniae (GC 4565): <0.06 µg/mL
[6]; Enterococcus avium (GC 4558)
  MIC Enterococcus avium (GC 4558): 4 µg/mL (≈ 2.83 µM)
[6]; Enterococcus faecalis (ATCC 29212)
  MIC Enterococcus faecalis (ATCC 29212): 2 µg/mL (≈ 1.41 µM)
[6]; Enterococcus faecalis (GC 2242)
  MIC Enterococcus faecalis (GC 2242): 2 µg/mL (≈ 1.41 µM)
[6]; Enterococcus faecalis (GC 2691)
  MIC Enterococcus faecalis (GC 2691): 4 µg/mL (≈ 2.83 µM)
[6]; Enterococcus faecalis (GC 3059)
  MIC Enterococcus faecalis (GC 3059): 2 µg/mL (≈ 1.41 µM)
[6]; Enterococcus faecalis (GC 4552)
  MIC Enterococcus faecalis (GC 4552): 2 µg/mL (≈ 1.41 µM)
[6]; Enterococcus faecalis (GC 4553)
  MIC Enterococcus faecalis (GC 4553): 4 µg/mL (≈ 2.83 µM)
[6]; Enterococcus faecalis (GC 4554)
  MIC Enterococcus faecalis (GC 4554): 2 µg/mL (≈ 1.41 µM)
[6]; Enterococcus faecalis (GC 6189)
  MIC Enterococcus faecalis (GC 6189): 2 µg/mL (≈ 1.41 µM)
[6]; Enterococcus faecium (GC 2243)
  MIC Enterococcus faecium (GC 2243): 2 µg/mL (≈ 1.41 µM)
[6]; Enterococcus faecium (GC 4556)
  MIC Enterococcus faecium (GC 4556): 2 µg/mL (≈ 1.41 µM)
[6]; Enterococcus faecium (GC 4557)
  MIC Enterococcus faecium (GC 4557): 2 µg/mL (≈ 1.41 µM)
[6]; strain ATCC 29212
  MIC Enterococcus faecalis (ATCC 29212): 2 µg/mL (≈ 1.41 µM)
[6]; strain GC 2242
  MIC Enterococcus faecalis (GC 2242): 2 µg/mL (≈ 1.41 µM)
[6]; strain GC 2243
  MIC Enterococcus faecium (GC 2243): 2 µg/mL (≈ 1.41 µM)
[6]; strain GC 2691
  MIC Enterococcus faecalis (GC 2691): 4 µg/mL (≈ 2.83 µM)
[6]; strain GC 3059
  MIC Enterococcus faecalis (GC 3059): 2 µg/mL (≈ 1.41 µM)
[6]; strain GC 4552
  MIC Enterococcus faecalis (GC 4552): 2 µg/mL (≈ 1.41 µM)
[6]; strain GC 4553
  MIC Enterococcus faecalis (GC 4553): 4 µg/mL (≈ 2.83 µM)
[6]; strain GC 4554
  MIC Enterococcus faecalis (GC 4554): 2 µg/mL (≈ 1.41 µM)
[6]; strain GC 4556
  MIC Enterococcus faecium (GC 4556): 2 µg/mL (≈ 1.41 µM)
[6]; strain GC 4557
  MIC Enterococcus faecium (GC 4557): 2 µg/mL (≈ 1.41 µM)
[6]; strain GC 4558
  MIC Enterococcus avium (GC 4558): 4 µg/mL (≈ 2.83 µM)
[6]; strain GC 6189
  MIC Enterococcus faecalis (GC 6189): 2 µg/mL (≈ 1.41 µM)
[7]
  MIC Coagulase Negative Staphylococcus (GC 4547): 1 µg/mL (≈ 0.707 µM)
  MIC Coagulase Negative Staphylococcus (GC 4548): 0.5 µg/mL (≈ 0.353 µM)
  MIC Coagulase Negative Staphylococcus (GC 4549): 0.5 µg/mL (≈ 0.353 µM)
  MIC Coagulase Negative Staphylococcus (GC 4551): 2 µg/mL (≈ 1.41 µM)
  MIC Coagulase Negative Staphylococcus (GC 6257): 1 µg/mL (≈ 0.707 µM)
  MIC Staphylococcus aureus (ATCC 29213): 1 µg/mL (≈ 0.707 µM)
  MIC Staphylococcus aureus (GC 1131): 2 µg/mL (≈ 1.41 µM)
  MIC Staphylococcus aureus (GC 3051): 1 µg/mL (≈ 0.707 µM)
  MIC Staphylococcus aureus (GC 3053): 1 µg/mL (≈ 0.707 µM)
  MIC Staphylococcus aureus (GC 4541): 1 µg/mL (≈ 0.707 µM)
  MIC Staphylococcus aureus (GC 4542): 1 µg/mL (≈ 0.707 µM)
  MIC Staphylococcus aureus (GC 4544): 2 µg/mL (≈ 1.41 µM)
  MIC Staphylococcus aureus (GC 4545): 2 µg/mL (≈ 1.41 µM)
  MIC Staphylococcus aureus-SMITH (GC 4543): 1 µg/mL (≈ 0.707 µM)
  MIC Staphylococcus haemolyticus (GC 4546): 1 µg/mL (≈ 0.707 µM)
[7]; inoculum 5×10^5 CFU/mL, strain GC 1131
  MIC Staphylococcus aureus (GC 1131): 2 µg/mL (≈ 1.41 µM)
[7]; strain ATCC 29213
  MIC Staphylococcus aureus (ATCC 29213): 1 µg/mL (≈ 0.707 µM)
[7]; strain GC 3051
  MIC Staphylococcus aureus (GC 3051): 1 µg/mL (≈ 0.707 µM)
[7]; strain GC 3053
  MIC Staphylococcus aureus (GC 3053): 1 µg/mL (≈ 0.707 µM)
[7]; strain GC 4541
  MIC Staphylococcus aureus (GC 4541): 1 µg/mL (≈ 0.707 µM)
[7]; strain GC 4542
  MIC Staphylococcus aureus (GC 4542): 1 µg/mL (≈ 0.707 µM)
[7]; strain GC 4544
  MIC Staphylococcus aureus (GC 4544): 2 µg/mL (≈ 1.41 µM)
[7]; strain GC 4545
  MIC Staphylococcus aureus (GC 4545): 2 µg/mL (≈ 1.41 µM)
[7]; strain GC 4546
  MIC Staphylococcus haemolyticus (GC 4546): 1 µg/mL (≈ 0.707 µM)
[7]; strain GC 4547
  MIC Coagulase Negative Staphylococcus (GC 4547): 1 µg/mL (≈ 0.707 µM)
[7]; strain GC 4548
  MIC Coagulase Negative Staphylococcus (GC 4548): 0.5 µg/mL (≈ 0.353 µM)
[7]; strain GC 4549
  MIC Coagulase Negative Staphylococcus (GC 4549): 0.5 µg/mL (≈ 0.353 µM)
[7]; strain GC 4551
  MIC Coagulase Negative Staphylococcus (GC 4551): 2 µg/mL (≈ 1.41 µM)
[7]; strain GC 6257
  MIC Coagulase Negative Staphylococcus (GC 6257): 1 µg/mL (≈ 0.707 µM)
[7]; strain SMITH GC 4543
  MIC Staphylococcus aureus-SMITH (GC 4543): 1 µg/mL (≈ 0.707 µM)
